# Measured values: patent US8053627B2, “Methods for treating demyelination disorders” (University of Chicago, priority 2005, dated 2011)
# Tested on: oligodendrocytes and myelin
# Experiment: IFN-γ-overexpressing mice crossed to PLP/SOCS1 mice, clinical and histological evaluation at postnatal day 21
# Format: in vivo
# Settings: for oligodendrocyte density: corpus callosum, postnatal day 21; for G ratio (axon diameter/fiber diameter ratio): hypomyelination defined as G ratio>0.8
# Protocol: IFN-γ-overexpressing mice were crossed to the PLP/SOCS1 mice in double-transgenic, (MBP/IFN-γ×PLP/SOCS1) and triple-transgenic (GFAP/tTA×TRE/IFN-γ×PLP/SOCS1) mating systems. MBP/IFN-γ×PLP/SOCS1 (172×PLP/SOCS1) mating was performed according to a standard mating protocol. The GFAP/tTA×TRE/IFN-γ×PLP/SOCS1 matings were performed in a 2-step mating process: GFAP/tTA mice were initially crossed to PLP/SOCS1 mice, and double-positive (184×PLP/SOCS1) offspring were then crossed to the TRE/IFN-γ lines 110 and 67, separately. This second mating step was performed according to the previously described “tet-off” protocol. Doxycycline 0.05 mg/ml (Sigma-Aldich) was added to the water of impregnated female mice until embryonic day 14, after which the animals were switched back to normal water, thereby allowing initiation of IFN-γ transcription, which peaks during the postnatal period (Lin et al., 2005).
# The litters of the mating systems (F1 generation) were examined daily and sacrificed at postnatal day 21. Clinical evaluation included behavioral observation and challenged ladder walking to elicit tremor. Histological examination included quantitation of the number and density of oligodendrocytes and examination of the myelination patterns. Brain tissue was simultaneously obtained from each animal at the time of sacrifice to verify and measure the expression of IFN-γ and Flag-SOCS1 (see below). The clinical and histological findings were subsequently stratified according to genotype. All animal procedures were conducted in compliance with the National Institutes of Health Guide for Care and Use of Laboratory Animals and were approved by the Institutional Animal Care and Use Committee at The University of Chicago.
# Oligodendrocyte cell density was assessed digitally using Axiovision software, at postnatal day 21, as previously described (Lin et al., 2005). The brains were sectioned sagittally through the corpus callosum dividing the brain in two symmetrical halves. Ten frozen sections from each half were prepared at 7 μm thickness, and numbered in the sequence of their preparation. The brains of three animals per study group were prepared in this fashion. Following the CC1 immunostaining the corresponding area of corpus callosum of each section was digitally selected and the corresponding total area obtained. CC1 cell counting was performed manually within the selected areas of each section, and the number of CC1 positive cells per square area (mm^2) calculated. The results were presented as mean±SD of CC1 (+) cells/mm^2 with n=3 animals per study group.
# Myelination patterns of the examined animals were assessed at postnatal day 21 by calculating the percent unmyelinated axons and ratio of the axon/fiber diameters (G ratio) with Image J software (National Institutes of Health, Bethesda, Md.) as previously described (Lin at al., 2005). The brains were sectioned sagittally through the corpus callosum dividing the brain in two symmetrical halves. Approximately 2 mm^3 samples from the genu and the splenum of both halves of corpus callosum were obtained using a Wild M3C stereotype microscope. The orientation of the specimen in the resin blocks yielding axonal cross-sections (well seen myelin rings) was chosen, and established by toluedine blue staining of a few sample sections. The resin blocks with the chosen orientation were processed for electron microscope examination. Randomly selected areas were examined and ten representative pictures from both genu and splenum corpus callosum were obtained at 12000× magnification. The number of unmyelinated axons was assessed by manual counting of axons that lacked myelin and were encircled solely by their own plasma membrane. All unmyelinated axons present in the representative images were counted, and their percentage calculated by examining a total of five hundred axons per tissue sample. […]
substance,measurement,setting,value
IFN-γ: pleotropic cytokine secreted by activated T lymphocytes and natural killer cells; delivered to the CNS by transgene or added as recombinant protein,Incidence of tremor,"172 × PLP/SOCS1 littermates, ten mice per group",0%
same,oligodendrocytes lost,184/67 system,approximately 40%
same,percentage of unmyelinated axons,184/67 system,57±7%
same,oligodendrocyte density,184/67 system,79±9 CC1 (+) cells/mm^2
same,G ratio (axon diameter/fiber diameter ratio),184/67 system,0.95±0.04
same,oligodendrocytes lost,184/110 system,approximately 20%
same,percentage of unmyelinated axons,184/110 system,41%±6
same,oligodendrocyte density,184/110 system,115±8 CC1 (+) cells/mm^2
same,G ratio (axon diameter/fiber diameter ratio),184/110 system,0.89±0.02
same,MHC class I molecule expression (immunostaining),MBP/IFN-γ and MBP/IFN-γ×PLP/SOCS1 brains,upregulated expression
